Test results published in patent US20060052356A1, “Pharmacological methods to modulate oxygen consumption” (priority 2004, published 2006).

Experiments:
protein synthesis = assay: 35S-methionine incorporation into tissue protein after i.v. protein synthesis inhibitor in anesthetized rats (Example 3); format: in vivo, Sprague Dawley rats
Sprague Dawley rats = assay: Toxicity and mortality in anesthetized rats given protein synthesis inhibitors (Example 3)

SMILES: COc1ccc(C[C@H]2NC[C@H](O)[C@H]2OC(C)=O)cc1 [anisomycin]
- inhibition of protein synthesis (in words) (protein synthesis; rat, in vivo, iv): substantial inhibition

SMILES: C[C@H]1c2cccc(O)c2C(=O)C2=C(O)[C@]3(O)C(=O)C(C(N)=O)=C(O)[C@@H](N(C)C)[C@@H]3[C@@H](O)[C@@H]21 [Doxycycline]
- mortality (Sprague Dawley rats; at doses <1/3 of LD50): ~66%

SMILES: COc1ccc(C[C@H](N)C(=O)N[C@H]2[C@@H](O)[C@H](n3cnc4c(N(C)C)ncnc43)O[C@@H]2CO)cc1 [puromycin]
- inhibition of protein synthesis (in words) (protein synthesis; single agents, intravenous): substantial inhibition

SMILES: O=c1c(-c2ccc(O)cc2)coc2cc(O)cc(O)c12 [Genistein]
- inhibition of protein synthesis (in words) (protein synthesis; single agents, intravenous): poor inhibitor
- toxicity (Sprague Dawley rats; rat, in vivo): toxicity at low doses
